The results in this text go back to patent US8846746B2, “Pyrazole compound and pharmaceutical use thereof” (Japan Tobacco Inc., priority 2011, dated 2014).

Molecules are shown by their SMILES.

The target of one test is human SGLT1 (Homo sapiens (Human), UniProt P13866). Put plainly: SGLT1 inhibitory activity: 14C-AMG uptake into CHO-K1 cell line stably expressing human SGLT1. It counts as cell-based. Conditions: 14C-AMG uptake, CHO-K1 cells stably expressing human SGLT1. The gist of the method: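 Human SGLT1 was stably expressed in CHO-K1 cells. Cells were first held 20 min in sodium-free buffer, then exposed to compound in Na(+)/BSA buffer with tracer and AMG (2 mM in the added solution).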
human SGLT1, sequence (P13866 whole entry): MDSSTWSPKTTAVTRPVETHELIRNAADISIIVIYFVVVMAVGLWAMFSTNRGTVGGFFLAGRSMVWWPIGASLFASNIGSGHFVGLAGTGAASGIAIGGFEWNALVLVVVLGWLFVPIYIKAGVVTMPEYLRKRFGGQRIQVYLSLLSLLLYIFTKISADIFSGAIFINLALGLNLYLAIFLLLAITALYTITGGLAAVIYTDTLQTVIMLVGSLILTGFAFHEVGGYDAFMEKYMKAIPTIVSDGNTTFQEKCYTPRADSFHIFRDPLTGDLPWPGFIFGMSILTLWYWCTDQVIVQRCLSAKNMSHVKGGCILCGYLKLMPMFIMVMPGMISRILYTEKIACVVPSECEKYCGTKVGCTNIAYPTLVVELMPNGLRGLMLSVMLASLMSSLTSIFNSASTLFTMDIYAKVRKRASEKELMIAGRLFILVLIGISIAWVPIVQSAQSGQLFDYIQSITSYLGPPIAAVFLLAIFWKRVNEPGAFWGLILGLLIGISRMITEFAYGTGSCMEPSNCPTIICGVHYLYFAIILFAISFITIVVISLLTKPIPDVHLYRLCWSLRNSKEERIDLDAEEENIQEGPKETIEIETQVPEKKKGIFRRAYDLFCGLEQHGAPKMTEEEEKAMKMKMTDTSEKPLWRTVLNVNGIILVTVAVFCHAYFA
As for `CCCc1cccc(-c2cc(NC(=O)[C@@H]3CNC(=O)C3)nn2-c2ccccc2CC)c1` [Example 358], the IC50 was 0.017 µM.

The compound `CCCc1cccc(-c2cc(NC(=O)[C@@H]3CNC(=O)C3)nn2-c2ccccc2C(C)C)c1` [Example 359] returned an IC50 of 0.039 µM. This IC50 lies about 2.3-fold higher than the previous one.

`CCCc1cccc(-c2cc(NC(=O)[C@@H]3CNC(=O)C3)nn2-c2ccc(OC)cc2)c1` [Example 362] returned an IC50 of 0.03 µM. This IC50 and that of the compound before are within 1.5-fold of each other.

Turning to `CCCc1cccc(-c2cc(NC(=O)[C@@H]3CNC(=O)C3)nn2-c2ccc(C(C)C)cc2)c1` [Example 363], the 50% inhibitory concentration (IC50) worked out at 0.013 µM. Compared with the last compound, the IC50 is about 2.3-fold lower.

For the compound `CC(OCc1cccc(-c2cc(NC(=O)[C@H]3CNC(=O)C3)nn2-c2ccccc2)c1)(C(F)(F)F)C(F)(F)F` [Example 364], the IC50 was found to be 0.0083 µM.

`C[C@@H](OCc1cccc(-c2cc(NC(=O)[C@H]3CNC(=O)N3)nn2-c2ccccc2)c1)C(F)(F)F` [Example 365] registered a concentration for half-maximal inhibition (IC50) of 0.018 µM.

`O=C1NC[C@H](C(=O)Nc2cc(-c3cccc(COC(C(F)(F)F)C(F)(F)F)c3)n(-c3ccccc3)n2)O1` [Example 366] returned a concentration for half-maximal inhibition (IC50) of 0.02 µM. This IC50 and that of the compound before are within 1.5-fold of each other.

Regarding `C[C@@H](OCc1cccc(-c2cc(NC(=O)[C@H]3CNC(=O)O3)nn2-c2ccccc2)c1)C(F)(F)F` [Example 367], the IC50 was found to be 0.0115 µM.

In the case of `CCCc1cccc(-c2cc(NC(=O)[C@@H]3COC(=O)N3)nn2-c2ccccc2)c1` [Example 368], half-maximal inhibition (IC50) was put at 0.056 µM.

As to `CCCc1cccc(-c2cc(NC(=O)[C@H]3COC(=O)N3)nn2-c2ccccc2)c1` [Example 369], the IC50 turned out to be 0.015 µM.

In turn, `CCCc1cccc(-c2cc(NC(=O)[C@@H]3CNC(=O)C3)nn2-c2ccc(OCc3ccccc3)cc2)c1` [Example 370] showed an IC50 of 0.00635 µM.

As to `CCCc1cccc(-c2cc(NC(=O)[C@@H]3CNC(=O)C3)nn2-c2ccc(O)cc2)c1` [Example 371], half-maximal inhibition (IC50) was put at 0.036 µM. Against the preceding compound, the IC50 is about 5.7-fold higher.

`CCCc1cccc(-c2cc(NC(=O)[C@@H]3CNC(=O)C3)nn2-c2ccc(OCC)cc2)c1` [Example 372] came in with an IC50 of 0.014 µM. Compared with the last compound, the IC50 is about 2.6-fold lower.

`CCCc1cccc(-c2cc(NC(=O)[C@@H]3CNC(=O)C3)nn2-c2ccc(OC(C)C)cc2)c1` [Example 373]: the IC50 was determined as 0.0053 µM.

Turning to `CCCc1cccc(-c2cc(NC(=O)[C@@H]3CNC(=O)C3)nn2-c2ccc(OCCC(F)(F)F)cc2)c1` [Example 374], the IC50 came out at 0.0088 µM.

Compound `CCCc1cccc(-c2cc(NC(=O)[C@@H]3CNC(=O)C3)nn2-c2ccc(OCC(F)(F)F)cc2)c1` [Example 375] had a 50% inhibitory concentration (IC50) of 0.013 µM. The IC50 values of the last two compounds are within 1.5-fold of each other.

In turn, `CCCc1cccc(-c2cc(NC(=O)[C@@H]3CNC(=O)C3)nn2-c2ccccc2OC)c1` [Example 376] returned an IC50 of 0.031 µM.

Compound `CCCc1cccc(-c2cc(NC(=O)[C@@H]3CNC(=O)C3)nn2-c2ccccc2OC(C)C)c1` [Example 378] returned an IC50 of 0.021 µM.

The compound `CCCc1cccc(-c2cc(NC(=O)[C@@H]3CNC(=O)C3)nn2-c2cccc(OCC)c2)c1` [Example 379] showed a half-maximal inhibitory concentration (IC50) of 0.00525 µM.

Consider `CCCOc1cccc(-n2nc(NC(=O)[C@@H]3CNC(=O)C3)cc2-c2cccc(CCC)c2)c1` [Example 380], for which it took 0.00675 µM to reach half-maximal inhibition (IC50).

In turn, `CCCc1cccc(-c2cc(NC(=O)[C@@H]3CNC(=O)C3)nn2-c2cccc(OCC(C)C)c2)c1` [Example 381] showed an IC50 of 0.0115 µM.

`CCCc1cccc(-c2cc(NC(=O)[C@@H]3CNC(=O)C3)nn2-c2cccc(OC3CCCC3)c2)c1` [Example 382]: the IC50 was found to be 0.012 µM.

In the case of `CCCOc1ccc(-n2nc(NC(=O)[C@@H]3CNC(=O)C3)cc2-c2cccc(CCC)c2)cc1` [Example 383], the 50% inhibitory concentration (IC50) is 0.014 µM.

In the case of `CCCc1cccc(-c2cc(NC(=O)[C@@H]3CNC(=O)N3CC(F)(F)F)nn2-c2ccccc2)c1` [Example 384], it took 0.048 µM to reach half-maximal inhibition (IC50).

Turning to `CCCc1cccc(-c2cc(NC(=O)[C@H]3CNC(=O)N3CC(F)(F)F)nn2-c2ccccc2)c1` [Example 385], the midpoint of inhibition, the IC50, lay at 0.007 µM.

In turn, `CCCc1cccc(-c2cc(NC(=O)[C@@H]3CNC(=O)C3)nn2-c2ccc(OC(F)(F)F)cc2)c1` [Example 386] yielded an IC50 of 0.035 µM.

On to `CCCc1cccc(-c2cc(NC(=O)[C@@H]3CNC(=O)C3)nn2-c2cccc(OCC(F)(F)F)c2)c1` [Example 387], for which half-maximal inhibition (IC50) required 0.0125 µM.

In turn, `CCCc1cccc(-c2cc(NC(=O)[C@@H]3CNC(=O)C3)nn2-c2cccc(OC(=O)OC(C)(C)C)c2)c1` [Example 388] displayed an IC50 of 0.00535 µM.

The compound `CCCc1cccc(-c2cc(NC(=O)[C@@H]3CNC(=O)C3)nn2-c2ccc(F)c(OC)c2)c1` [Example 389] returned an IC50 of 0.015 µM.

Regarding `CCCc1cccc(-c2cc(NC(=O)[C@@H]3CNC(=O)C3)nn2-c2ccc(F)c(OCC)c2)c1` [Example 390], half-maximal inhibition (IC50) required 0.0094 µM.

For the compound `CCCc1cccc(-c2cc(NC(=O)[C@@H]3CNC(=O)C3)nn2-c2ccc(F)c(OC(C)C)c2)c1` [Example 391], inhibition was half-maximal at 0.00375 µM (IC50).

As to `CCCc1cccc(-c2cc(NC(=O)[C@@H]3CNC(=O)C3)nn2-c2cccc(C(C)C)c2)c1` [Example 392], the IC50 was 0.0057 µM.

In turn, `CCCc1cccc(-c2cc(NC(=O)[C@@H]3CNC(=O)C3)nn2-c2cccc(CC)c2)c1` [Example 393] gave an IC50 of 0.00525 µM.

`CCCc1cccc(-c2cc(NC(=O)[C@@H]3CNC(=O)C3)nn2-c2cccc(C(C)(C)C)c2)c1` [Example 394] registered an IC50 of 0.015 µM.

Compound `CCCO[C@H](C)c1cccc(-c2cc(NC(=O)[C@@H]3CNC(=O)C3)nn2-c2ccccc2)c1` [Example 395] had a half-maximal inhibitory concentration (IC50) of 0.013 µM. This IC50 and that of the compound before are within 1.5-fold of each other.

With `CCCO[C@@H](C)c1cccc(-c2cc(NC(=O)[C@@H]3CNC(=O)C3)nn2-c2ccccc2)c1` [Example 396], the IC50 was determined as 0.031 µM. Compared with the last compound, the IC50 is about 2.4-fold higher.

The compound `O=C1C[C@H](C(=O)Nc2cc(-c3cccc(COC(F)(F)F)c3)n(-c3ccccc3)n2)CN1` [Example 399] gave an IC50 of 0.019 µM.

Take `CCCc1cccc(-c2cc(NC(=O)[C@@H]3CNC(=O)C3)nn2-c2cccc(OC(F)(F)F)c2)c1` [Example 400]: the IC50 amounted to 0.015 µM.

`CCCc1cccc(-c2cc(NC(=O)[C@@H]3CNC(=O)C3)nn2-c2cccc(C(F)(F)F)c2)c1` [Example 401] showed an IC50 of 0.013 µM.

In turn, `CCCc1cccc(-c2cc(NC(=O)[C@@H]3CNC(=O)C3)nn2-c2ccc(C(F)(F)F)cc2)c1` [Example 402] returned an IC50 of 0.017 µM.

`CCCc1cccc(-c2cc(NC(=O)[C@@H]3CNC(=O)C3)nn2-c2ccc(CC)cc2)c1` [Example 403] returned an IC50 of 0.012 µM.

For the compound `CCCc1cccc(-c2cc(NC(=O)[C@@H]3CNC(=O)C3)nn2-c2cccc(OCCOC)c2)c1` [Example 406], inhibition was half-maximal at 0.00785 µM (IC50). Against the preceding compound, the IC50 is about 1.5-fold lower.

For the compound `CCCc1cccc(-c2cc(NC(=O)[C@@H]3CNC(=O)C3)nn2-c2cccc(OCCOCc3ccccc3)c2)c1` [Example 407], the IC50 is 0.0076 µM.

`CCCc1cccc(-c2cc(NC(=O)[C@@H]3CNC(=O)C3)nn2-c2cccc(OCCO)c2)c1` [Example 408] came in with an IC50 of 0.008 µM.

`O=C1C[C@H](C(=O)Nc2cc(-c3cccc(COC(C(F)(F)F)C(F)(F)F)c3)n(-c3ccc(F)cc3)n2)CN1` [Example 409] had an IC50 of 0.012 µM.

`Cc1cc(CO[C@H](C)C(F)(F)F)cc(-c2cc(NC(=O)[C@@H]3CNC(=O)C3)nn2-c2ccccc2)c1` [Example 410] registered an IC50 of 0.022 µM.

The compound `Cc1cc(-c2cc(NC(=O)[C@@H]3CNC(=O)C3)nn2-c2ccccc2)cc(C(C)(C)C)c1` [Example 411] returned an IC50 of 0.0044 µM. Against the preceding compound, the IC50 is about 5-fold lower.

With `CCCc1cccc(-c2cc(NC(=O)[C@@H]3CNC(=O)C3)nn2-c2cccc(OC3CCC3)c2)c1` [Example 412], the IC50 stood at 0.0109 µM. This IC50 lies about 2.5-fold higher than the previous one.

As for `CCCc1cccc(-c2cc(NC(=O)[C@@H]3CNC(=O)C3)nn2-c2ccc(F)c(OCCOC)c2)c1` [Example 414], the IC50 stood at 0.0115 µM. This IC50 and that of the compound before are within 1.5-fold of each other.

As for `CCCc1cccc(-c2cc(NC(=O)[C@@H]3CNC(=O)C3)nn2-c2ccc(F)c(OCCO)c2)c1` [Example 415], the half-inhibitory concentration (IC50) came to 0.013 µM.

In turn, `COc1cc(-n2nc(NC(=O)[C@@H]3CNC(=O)C3)cc2-c2cccc(COCC(F)(F)F)c2)ccc1F` [Example 416] came in with an IC50 of 0.015 µM.

As for `CCOc1cc(-n2nc(NC(=O)[C@@H]3CNC(=O)C3)cc2-c2cccc(COCC(F)(F)F)c2)ccc1F` [Example 417], half-maximal inhibition (IC50) required 0.0043 µM.

The compound `CC(C)Oc1cc(-n2nc(NC(=O)[C@@H]3CNC(=O)C3)cc2-c2cccc(COCC(F)(F)F)c2)ccc1F` [Example 418] had an IC50 of 0.00235 µM. Against the preceding compound, the IC50 is about 1.8-fold lower.

Turning to `CCCOc1cc(-n2nc(NC(=O)[C@@H]3CNC(=O)C3)cc2-c2cccc(COCC(F)(F)F)c2)ccc1F` [Example 419], the IC50 stood at 0.00475 µM. This IC50 lies about 2-fold higher than the previous one.

With `COc1cc(-n2nc(NC(=O)[C@@H]3CNC(=O)C3)cc2-c2cccc(OC(F)(F)F)c2)ccc1F` [Example 420], the IC50 is 0.047 µM. Compared with the last compound, the IC50 is about 9.9-fold higher.

`CCOc1cc(-n2nc(NC(=O)[C@@H]3CNC(=O)C3)cc2-c2cccc(OC(F)(F)F)c2)ccc1F` [Example 421]: the IC50 came out at 0.02 µM. Against the preceding compound, the IC50 is about 2.4-fold lower.

`CC(C)Oc1cc(-n2nc(NC(=O)[C@@H]3CNC(=O)C3)cc2-c2cccc(OC(F)(F)F)c2)ccc1F` [Example 422] had an IC50 of 0.014 µM.

On to `CCCOc1cc(-n2nc(NC(=O)[C@@H]3CNC(=O)C3)cc2-c2cccc(OC(F)(F)F)c2)ccc1F` [Example 423], for which the IC50 came out at 0.016 µM.

The same test, now with this note: CHO-K1, at 0.1 uM.
`CCCc1cccc(-c2cc(NC(=O)C3CNC(=O)C34CC4)nn2-c2ccccc2)c1` (stereo not shown) [Example 361]: the inhibition at 0.1 µM worked out at 33%.

As to `CCCc1cccc(-c2cc(NC(=O)C3CNC(=O)C3(C)C)nn2-c2ccccc2)c1` (stereo not shown) [Example 398], the inhibition at 0.1 µM is 7%.

The compound `CCCc1cccc(-c2cc(NC(=O)C3CC(=O)NC3C)nn2-c2ccccc2)c1` (stereo not shown) [Example 405] had an inhibition at 0.1 µM of 29%.

Compound `CC(C)(C)OC(=O)c1cccc(-c2cc(NC(=O)[C@@H]3CNC(=O)C3)nn2-c2ccccc2)c1` [Example 413] displayed an inhibition at 0.1 µM of 48%.

For `C[C@@H](OCc1ccc(F)c(-c2cc(NC(=O)[C@@H]3CNC(=O)C3)nn2-c2ccccc2)c1)C(F)(F)F` [Example 427], the inhibition at 0.1 µM came out at 49%.

Regarding `O=C1C[C@H](C(=O)Nc2cc(-c3cccc(CN4CCCC4)c3)n(-c3ccccc3)n2)CN1` [Example 428], the inhibition at 0.1 µM turned out to be 31%.

The term IC50 denotes the midpoint of a concentration-inhibition curve. In general, inhibition refers to the change of the read-out against control, counted positive when it falls. Read a low inhibition as little suppression.
